Columns and labels:
RARα = target: T1, RARα (Homo sapiens, UniProt P10276); experiment: RARα binding assay (SPA, 3H-TTNPB competition); details: RARα/RXRα heterodimer
T1 construct: made in house; host or cells: baculovirus expression system
T1 sequence (P10276 1-462): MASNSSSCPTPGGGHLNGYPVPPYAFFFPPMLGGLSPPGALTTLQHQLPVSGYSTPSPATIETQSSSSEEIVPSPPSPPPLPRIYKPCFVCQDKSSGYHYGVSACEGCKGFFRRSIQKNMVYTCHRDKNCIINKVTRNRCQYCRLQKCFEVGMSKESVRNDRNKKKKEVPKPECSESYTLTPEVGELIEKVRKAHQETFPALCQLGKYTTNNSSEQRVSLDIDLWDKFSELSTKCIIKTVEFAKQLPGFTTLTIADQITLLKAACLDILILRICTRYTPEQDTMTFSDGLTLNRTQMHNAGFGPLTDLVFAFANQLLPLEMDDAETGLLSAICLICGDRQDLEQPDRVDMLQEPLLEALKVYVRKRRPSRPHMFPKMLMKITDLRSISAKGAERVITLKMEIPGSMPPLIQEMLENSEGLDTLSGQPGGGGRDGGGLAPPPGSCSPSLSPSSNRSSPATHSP
T1 sequence (P19793 1-462 partner): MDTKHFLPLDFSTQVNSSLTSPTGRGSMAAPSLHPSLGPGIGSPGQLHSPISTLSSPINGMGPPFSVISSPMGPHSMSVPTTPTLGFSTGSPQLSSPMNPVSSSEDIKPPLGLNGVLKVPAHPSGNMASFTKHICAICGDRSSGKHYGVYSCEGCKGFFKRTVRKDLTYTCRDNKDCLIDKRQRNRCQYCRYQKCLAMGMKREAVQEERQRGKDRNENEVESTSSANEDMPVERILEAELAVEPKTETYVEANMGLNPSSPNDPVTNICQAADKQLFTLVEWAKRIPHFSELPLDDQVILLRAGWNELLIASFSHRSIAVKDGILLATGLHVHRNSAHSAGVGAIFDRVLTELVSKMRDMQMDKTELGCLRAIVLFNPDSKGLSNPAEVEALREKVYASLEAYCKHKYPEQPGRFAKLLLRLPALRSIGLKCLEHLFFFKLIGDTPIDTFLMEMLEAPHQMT
Excerpt: Compounds can be evaluated for binding to RARα, β and γ by measuring their ability to competitively bind to the RAR receptors when dimerized with the binding partner RXRα. Competitive binding assays may be carried out by Scintillation Proximity Assay (SPA) technology using the RARα, β or γ heterodimer (with RXRα as a partner with all the RARs) receptors prepared in a baculovirus expression system. Use the biotinylated oligonucleotide: 5′-[…]-3′ for binding of receptor to yttrium silicate streptavidin-coated SPA beads. Per well, preincubate […] with 82.7 μg SPA beads in a binding buffer containing 10 mM HEPES pH 7.8, 80 mM KCl, 0.5 mM MgCl2, 1 mM DTT, 0.5% CHAPS and 16.6 μg bovine serum albumin for 30 min at room temperature. Then spin the mixture at 2,000 rpm for 3 min to pelletize the beads-oligo mix. Remove the supernatant and resuspend the beads-oligo pellet in the same binding buffer as above, but which in addition now also contain 14% glycerol, 5 μg of sheared salmon sperm DNA, 0.5 μg of RARα, 1.0 μg of RARβ, or 0.25 μg of RARγ receptor, respectively. Carry out the binding assays in the presence of ˜11.3 μCi of ^3H 4-[(E)-2-(5,6,7,8-tetrahydro-5,5,8,8-tetramethyl-2-naphthalenyl)-1-propenyl]benzoic acid (TTNPB), and multiple concentrations of test compound ranging from (5 nM to 10 μM). Non-specific binding may be determined in the presence of 1 μM unlabeled TTNPB. Use the data to calculate an IC50 for compounds after fitting the dose-response curves to a 4-parameter logistic fit. Use the Cheng-Prusoff equation to convert IC50 (nM) values for compounds to Ki, and the Kd may be determined by saturation binding.

MIA model of pain = experiment: Monosodium iodoacetate (MIA) model of pain; assay type: in vivo, rat; details: rats, dose of 0.1 mg/kg, dosed once on day 9 post MIA, measured 2 h post dosing
Excerpt: The injection of monoiodoacetic acid (MIA) into the knee joint of rats produces an acute inflammatory insult, which then develops into chronic degeneration of the joint tissues in the injected joint. The pain resulting from the joint injury can be measured via differential weight bearing of the hind legs using an incapacitance tester. […] Efficacy is routinely measured by the ability of a compound to partially normalize weight distribution. The maximal efficacy that can be achieved in the standard MIA is dependent on the mechanism being studied; however, for many mechanisms the maximal efficacy achieved results in a 25%-50% reduction in the weight bearing differential.
Use Male Lewis rats approximately 150-170 g and between 6-8 weeks of age. Let the animals acclimate to the environment for at least 72 h. […]
Incapacitance Tester Readings—Incapacitance Testers (Columbus Instruments International, Columbus, Ohio) for weight bearing measurements. […] A total of three one second readings are taken to reflect the amount of pressure exerted on both the left and right hind paw while the rat is positioned in the chamber. The force exerted by each hind paw is measured in grams and calculated as the left hind paw weight distribution-right hind paw weight distribution. Thus, the final paw weight distribution for each animal is an average of the three one second readings. […]

Compound | Ki (RARα) | inhibition of pain (hind paw weight bearing differential) compared to vehicle (MIA model of pain)
CC(C)(C)c1cc(-c2cc(-c3ccc(C(=O)O)cc3)nn2-c2ccc(S(C)(=O)=O)cc2)cc(C(C)(C)C)c1 [Example 19, 4-[5-(3,5-Di-tert-butylphenyl)-1-(4-methylsulfonylphenyl)pyrazol-3-yl]benzoic Acid] | 0.285 µM | 
CC(C)Sc1cc(-c2cc(-c3ccc(C(=O)O)cc3)nn2-c2ccc(C(=O)N(C)C)cc2)cc(C(C)(C)C)c1 [Example 12, 4-[5-(3-tert-Butyl-5-isopropylsulfanyl-phenyl)-1-[4-(dimethylcarbamoyl)phenyl]pyrazol-3-yl]benzoic Acid] | 0.386 µM | 
CC(C)(C)c1cc(-c2cc(-c3ccc(C(=O)O)cc3)nn2-c2ccc(C(=O)N3CCOCC3)cc2)cc(C(C)(C)C)n1 [Example 8, 4-[5-(2,6-Di-tert-butyl-4-pyridyl)-1-[4-(morpholine-4-carbonyl)phenyl]pyrazol-3-yl]benzoic acid] | 0.357 µM | 
CN1CCN(C(=O)c2ccc(-n3nc(-c4ccc(C(=O)O)cc4)cc3-c3cc(C(C)(C)C)cc(C(C)(C)C)c3)cc2)CC1 [Example 1, 4-[5-(3,5-Di-tert-butylphenyl)-1-[4-(4-methylpiperazine-1-carbonyl)phenyl]pyrazol-3-yl]benzoic Acid] | > 0.97 µM | significantly inhibits pain
